Reference: patent US8754115B2, “Fungicidal pyrazoles” (E I du Pont de Nemours and Company, priority 2010, dated 2014)
Marks after values point to notes of the source that are not given here.

Columns and labels:
Format in all cases: in vivo
[1] = system: Blumeria graminis f. sp. tritici; assay: Test F: preventive spray on wheat seedlings, visual disease rating (wheat powdery mildew)
Text: (§1) General protocol for preparing test suspensions for Tests A-F: the test compounds were first dissolved in acetone in an amount equal to 3% of the final volume and then suspended at the desired concentration (in ppm) in acetone and purified water (50/50 mix by volume) containing 250 ppm of the surfactant Trem® 014 (polyhydric alcohol esters). The resulting test suspensions were then used in Tests A-F. Spraying a 200 ppm test suspension to the point of run-off on the test plants was the equivalent of a rate of 800 g/ha. Unless otherwise indicated, the rating values indicate a 200 ppm test suspension was used. (An asterisk “*” next to the rating value indicates a 40 ppm test suspension was used.)
The test suspension was sprayed to the point of run-off on wheat seedlings. The following day the seedlings were inoculated with a spore dust of Blumeria graminis f. sp. tritici, (also known as Erysiphe graminis f. sp. tritici, the causal agent of wheat powdery mildew) and incubated in a growth chamber at 20° C. for 8 days, after which time visual disease ratings were made.
(§2) Results for Tests A-F are given in Table A. In the Table, a rating of 100 indicates 100% disease control and a rating of 0 indicates no disease control (relative to the controls). A dash (-) indicates no test results. An asterisk “*” next to the rating value indicates a 40 ppm test suspension was used.

[2] = system: Botrytis cinerea; assay: Test A: preventive spray on tomato seedlings, visual disease rating (tomato Botrytis)
Text: as §1
The test suspension was sprayed to the point of run-off on tomato seedlings. The following day the seedlings were inoculated with a spore suspension of Botrytis cinerea (the causal agent of tomato Botrytis) and incubated in saturated atmosphere at 20° C. for 48 h, and then moved to a growth chamber at 24° C. for 3 days, after which time visual disease ratings were made.
as §2

[3] = system: Septoria tritici; assay: Test D: preventive spray on wheat seedlings, visual disease rating (wheat leaf blotch)
Text: as §1
The test suspension was sprayed to the point of run-off on wheat seedlings. The following day the seedlings were inoculated with a spore suspension of Septoria tritici (the causal agent of wheat leaf blotch) and incubated in saturated atmosphere at 24° C. for 48 h, and then moved to a growth chamber at 20° C. for 19 days, after which time visual disease ratings were made.
as §2

[4] = system: Puccinia recondite f. sp. tritici; assay: Test E2: preventive spray on wheat seedlings, visual disease rating (wheat leaf rust)
Text: as §1
The test suspension was sprayed to the point of run-off on wheat seedlings. The following day the seedlings were inoculated with a spore suspension of Puccinia recondite f. sp. tritici (the causal agent of wheat leaf rust) and incubated in a saturated atmosphere at 20° C. for 24 h, and then moved to a growth chamber at 20° C. for 7 days, after which time visual disease ratings were made.
as §2

[5] = asterisk: 40 ppm test suspension
[6] = no asterisk: standard test suspension, not 40 ppm
[7] = no asterisk: standard test suspension, not 40 ppm, 100 = 100% disease control, 0 = none

Row | Compound | Test F rating (% disease control) [1, 5] | Test A rating (% disease control) [2, 5] | Test D rating (% disease control) [3, 5] | Test E2 rating (% disease control) [4, 5] | Test F rating (% disease control) [1, 6] | Test A rating (% disease control) [2, 7] | Test D rating (% disease control) [3, 6] | Test E2 rating (% disease control) [4, 6]
1 | Cc1nn(C)c(-c2c(F)cccc2Cl)c1C(SC#N)c1c(F)cc(F)cc1F (stereo not shown) [Compound 123] | 90* % | 87* % | 100* % | 99* % |  |  |  | 
2 | Cc1nn(C)c(-c2c(F)cncc2F)c1C(O)c1ccc(F)cc1F (stereo not shown) [compound 168] | 100* % | 21* % | 100* % | 88* % |  |  |  | 
3 | COc1nn(C)c(-c2c(F)cccc2F)c1C(O)c1c(F)ccc(F)c1Cl (stereo not shown) [compound 139] | 96* % | 83* % | 100* % | 80* % |  |  |  | 
4 | COc1nn(C)c(-c2c(F)cc(F)cc2F)c1C(O)c1ccccc1F (stereo not shown) [compound 154] |  |  |  |  | 100% | 100% | 100% | 100%
5 | Cn1nc(Cl)c(C(O)c2ccc(F)cc2Cl)c1-c1c(F)cccc1Cl (stereo not shown) [compound 135] |  |  |  |  | 99% | 100% | 100% | 100%
6 | COc1nn(C)c(-c2c(F)cc(Cl)cc2F)c1C(O)c1ccc(F)cc1Cl (stereo not shown) [compound 162] | 64* % | 99* % | 100* % | 86* % |  |  |  | 
7 | COc1nn(C)c(-c2c(F)cccc2F)c1C(O)c1c(F)ccc(F)c1F (stereo not shown) [compound 138] | 93* % | 66* % | 16* % | 55* % |  |  |  | 
8 | Cn1nc(Cl)c(C(O)c2ccc(F)cc2F)c1-c1c(F)cccc1Cl (stereo not shown) [compound 133] |  |  |  |  | 99% | 100% | 100% | 100%
9 | Cc1nn(C)c(-c2ccc(F)cc2I)c1C(O)c1ccc(F)cc1Cl (single isomer, unassigned) [compound 103] |  |  |  |  | 95% | 99% | 98% | 96%
10 | Cc1nn(C)c(-c2c(F)cc(Br)cc2F)c1C(=O)c1ccc(F)cc1F [compound 102] |  |  |  |  | 97% | 0% | 0% | 55%
11 | Cc1nn(C)c(-c2ccc(Cl)cc2Cl)c1C(O)c1ccc(F)cc1F (stereo not shown) [compound 97] |  |  |  |  | 99% | 99% | 100% | 100%
12 | COc1ccc(C(O)c2c(C)nn(C)c2-c2ccc(F)cc2Cl)c(Cl)c1 (stereo not shown) [compound 169] | 0* % | 0* % | 68* % | 88* % |  |  |  | 
13 | Cc1nn(C)c(-c2c(F)cncc2F)c1C(O)c1ccc(F)cc1Cl (stereo not shown) [compound 166] | 93* % | 99* % | 100* % | 99* % |  |  |  | 
14 | Cc1cc(C)n(-c2c(C(O)c3ccc(F)cc3F)c(C)nn2C)n1 (stereo not shown) [compound 159] |  |  |  |  | 0% | 0% | 0% | 0%
15 | Cc1nn(C)c(-c2c(Cl)cncc2Cl)c1C(O)c1ccc(F)cc1Cl (stereo not shown) [compound 98] | 100* % | 94* % | 100* % | 100* % |  |  |  | 
16 | COc1ccc(C(O)c2c(C)nn(C)c2-c2c(F)cccc2Cl)c(Cl)c1 (stereo not shown) [compound 170] | 98* % | 100* % | 100* % | 100* % |  |  |  | 
17 | COc1nn(C)c(-c2c(F)cc(F)cc2F)c1C(O)c1ccc(F)cc1F (stereo not shown) [compound 153] | 100* % | 100* % | 100* % | 100* % |  |  |  | 
18 | Cc1nn(C)c(-c2c(F)cccc2Br)c1C(=O)c1ccc(F)cc1Cl [compound 93] |  |  |  |  | 100% | 90% | 7% | 91%
19 | Cc1cc(F)ccc1C(O)c1c(C)nn(C)c1-c1c(F)cccc1F (stereo not shown) [compound 129] |  |  |  |  | 100% | 100% | 100% | 99%
20 | COc1nn(C)c(-c2c(F)cccc2F)c1C(O)c1ccc(F)cc1Cl (stereo not shown) [compound 126] |  |  |  |  | 100% | 100% | 100% | 100%
21 | COc1cc(F)c(-c2c(C(O)c3ccc(F)cc3F)c(C)nn2C)c(F)c1 (stereo not shown) [compound 172] | 100* % | 99* % | 100* % | 100* % |  |  |  | 
22 | Cc1cc(F)ccc1C(O)c1c(C)nn(C)c1-n1ccnc1Cl (stereo not shown) [compound 150] |  |  |  |  | 0% | 8% | 0% | 9%
23 | Cc1cc(C)n(-c2c(C(O)c3ccc(F)cc3C)c(C)nn2C)n1 (stereo not shown) [compound 158] |  |  |  |  | 13% | 0% | 8% | 0%
24 | Cn1nc(Br)c(C(O)c2ccc(F)cc2Cl)c1-c1ccc(F)cc1Cl (stereo not shown) [compound 125] |  |  |  |  | 87% | 82% | 100% | 100%
25 | Cc1nn(C)c(-c2ccc(F)cc2Cl)c1C(O)c1ccc(F)cc1I (stereo not shown) [compound 99] |  |  |  |  | 99% | 97% | 100% | 100%
26 | Cn1ncc(C(O)c2ccc(F)cc2Cl)c1-c1c(F)cccc1F (stereo not shown) [compound 130] |  |  |  |  | 100% | 100% | 100% | 100%
27 | COc1ccc(C(O)c2c(OC)nn(C)c2-c2c(F)cccc2F)c(F)c1 (stereo not shown) [compound 161] | 90* % | 94* % | 100* % | 92* % |  |  |  | 
28 | Cc1nn(C)c(-c2ccc(F)cc2)c1C(O)c1ccc(F)cc1Cl (stereo not shown) [compound 105] | 81* % | 0* % | 100* % | 98* % |  |  |  | 
